Assays:
[1] = test system: OVCA 433; assay: cells; conditions: Homo sapiens, OVCA433, read-out: IC50 concentration
Experimental: (§1) After 72 hours, the cytotoxicity of the relevant compound was determined by an MTT based assay.
(§2) Cell Lines; SKOV-3 cells were obtained from ATCC; UCI-101 and UCI-107 cell lines were obtained from Drs. P. DiSaia and A. Manetta, University of California; MCF-7 and MCF-7-Pgp were obtained from Dr. D. Piwnica-Worms, Washington University; OVCA429, OVCA433 and the taxane resistant derivatives of these cells (OVCA429T, OVCA429TxT, OVCA433T and OVCA433TxT) were obtained from Dr. B. Sikic, Stanford University. All cells were grown in DMEM with 10% FBS.
(§3) Cell Cytotoxicity Assay. The cytotoxicity of relevant compounds was determined by IC50 assay. Cells were seeded overnight into 96-well plates, and then incubated with a serial dilution of the indicated compound for 20 min, before washing twice with fresh media, and incubation at 37° C. for 72 hr in drug-free media. The IC50 values were determined as the concentration of compound required to inhibit the viability of the cell layer by 50% relative to untreated, and cell-free control wells (100 and 0% viability respectively) determined from semi-logarithmic dose response curves. […] Bioluminescence was determined using an IVIS 50 system (Caliper Life Sciences, Alameda, Calif.). Each compound and dilution was tested in triplicate per experiment, with each experiment reproduced three times.

[2] = test system: UCI-107 luc; assay: cells; conditions: Homo sapiens, read-out: IC50 concentration
Experimental: as §1, §2, §3

[3] = test system: UCI-101 luc; assay: cells; conditions: Homo sapiens, UCI101, read-out: IC50 concentration
Experimental: as §1, §2, §3

[4] = test system: MCF-7; assay: cells; conditions: Homo sapiens, MCF7, read-out: IC50 concentration
Experimental: as §1, §2, §3

[5] = test system: OVCA 429; assay: cells; conditions: Homo sapiens, OVCA429, read-out: IC50 concentration
Experimental: as §1, §2, §3

[6] = test system: SKOV-3; assay: cells; conditions: Homo sapiens, SK-OV-3, read-out: IC50 concentration
Experimental: as §1, §2, §3

[7] = test system: MCF-7-pgp; assay: Cell cytotoxicity assay (IC50), MCF-7-pgp; conditions: Homo sapiens, read-out: IC50 concentration
Experimental: as §1
(§4) Within the panel of human cancer cells, there were three sets of related sensitive and resistant cell lines, the latter based wholly or in part on Pgp-mediated efflux. These resistant lines were either created through stable transfection of MCF-7 cells with Pgp (MCF-7-Pgp), or by selection through exposure of OVCA429 and OVCA433 cells to taxol (OVCA429T and OVCA433T)^19 or taxotere (OVCA429TxT and OVCA433TxT), creating a complex MDR phenotype including Pgp upregulation.
as §2, §3

[8] = test system: UCI-101 tumor cells expressing luciferase; assay: Mouse tumor model, UCI-101 intraperitoneal xenograft; format: in vivo, mice; conditions: 10 mg/kg dose
Excerpt: (a) 1×10^7 UCI-101 tumor cells expressing luciferase were implanted into the peritoneal cavity of athymic nu/nu mice 7 days prior to treatment. […] For the purpose of these experiments TFA^− counteranions on both conjugates were exchanged to C. Subsequent tumor burden was followed by bioluminescence imaging (n=8/group). […] Tumor burden was followed by bioluminescence imaging. […] (n=8/group).
Mouse Tumor Models: Tumor xenografts were created by intraperitoneal injection of female athymic CD1 nu/nu or SCID mice with 1×10^7 cells. Versions of UCI-101, OVCA429 or OVCA429T cells were used expressing Firefly luciferase. […] Mice were then treated with three intraperitoneal injections (5 days apart) of 5 or 10 mg/kg taxol or equimolar dose equivalents of the taxol derivatives, or PBS as a control. For the purpose of these experiments TFA^− counteranions on both conjugates were exchanged to C. Subsequent tumor burden was followed by BLI. Once tumor burden reached 1×10^8 photons/sec/mouse the mice were euthanized.
Comparisons of survival (Kaplan-Meier) curves were made by the Wilcoxon-Rank test. Statistical significance was determined as p<0.05.

[9] = test system: OVCA 429TxT; assay: cells; conditions: Homo sapiens, read-out: IC50 concentration
Experimental: as §1, §4, §2, §3

[10] = test system: OVCA 433T; assay: cells; conditions: Homo sapiens, read-out: IC50 concentration
Experimental: as §1, §4, §2, §3

[11] = test system: OVCA 429T; assay: cells; conditions: Homo sapiens, read-out: IC50 concentration
Experimental: as §1, §4, §2, §3

[12] = test system: OVCA 433TxT; assay: cells; conditions: Homo sapiens, read-out: IC50 concentration
Experimental: as §1, §4, §2, §3

- IC50 [1]: 0.294 µM
- IC50 [2]: 0.32 µM
- IC50 [3]: 0.246 µM
- IC50 [4]: 0.171 µM
- IC50 [5]: 0.147 µM
- IC50 [6]: 0.029 µM
- IC50 [9]: 2.52 µM
- IC50 [10]: 6.18 µM
- IC50 [11]: 15.8 µM
- IC50 [12]: 12.4 µM
Structure (SMILES): CC(=O)O[C@H]1C(=O)[C@@]2(C)[C@H]([C@H](OC(=O)c3ccccc3)[C@]3(O)C[C@H](OC(=O)[C@H](O)[C@@H](NC(=O)c4ccccc4)c4ccccc4)C(C)=C1C3(C)C)[C@]1(OC(C)=O)CO[C@@H]1C[C@@H]2O [compound 1, Taxol, reference compound]
- IC50 [7]: 0.867 µM
- complete responses [8]: 12.5%

Source: US20110160146A1, “Conjungation of Small Molecules to Octaarginine Transporters for Overcoming Multi-Drug Resistance” (National Institute of Health (NIH), priority 2008, published 2011)
